Test results reported in patent US20030087014A1, “Enhanced thermal inactivation of pathogen in a nutriment by acidulant” (Mionix Corp., priority 2001, published 2003).

Test system: human skin
Test: Contact of acidic solution with human skin and nose
Conditions: solution with a pH of less than 0.5

O=S(=O)(O)O [sulfuric acid]
Irritation of hand put into the solution: an irritation would occur within a relatively short span of time
